Results from US6525043B2, “Use of ion channel modulating agents” (NeuroSearch A/S, priority 1999, dated 2003).

Molecular target: T1, Intermediate-conductance Ca2+-activated K+ channels (IK channels) (Homo sapiens, UniProt O15554)
T1 construct: expressed in transfected cells
Experiment: Whole-cell patch-clamp recording of ionic current through IK channels stably expressed in HEK293 cells
Format: cell-based
Conditions: hIK in HEK293 cells, voltage-ramps -100 to +100 mV, free Ca2+ 100 nM, room temperature
Protocol: In this experiment the ionic current through Intermediate-conductance Ca^2+-activated K^+channels (IK channels) is recorded in the whole-cell mode of the patch-clamp technique.
Intermediate-conductance Ca^2+-activated K^+ channels (IK channels) have been cloned from human placenta and stably expressed in HEK293 cells.
Human IK (hIK) was excised from pT3T7 (GenBank Acc. No. N56819) using EcoR I and Not I and sub-cloned into the mammalian expression vector pNS1Z (NeuroSearch), a custom designed derivative of pcDNA3Zeo (InVitrogen) to give the plasmid construct pNS1Z13 hIK. HEK293 tissue culture cells were grown in DMEM (Dulbecco's Modified Eagle Medium) supplemented with 10% FCS (foetal calf serum) at 37° C. in 5% CO2. […]
Experiments are carried out on one of several patch-clamp set-ups. […] Data are stored directly on the hard-disk and analysed by the IGOR software (Wavemetrics, Lake Oswega, Oreg., USA).
The whole-cell configuration of the patch clamp technique is applied. […] Cell capacitance is electronically compensated and the resistance between the pipette and the cell interior (the series resistance, Rs) is measured and compensated for. […]
The intracellular (pipette) solution has the following composition (conc. in mM): 144 KCl, 10 EGTA, 1.4 MgCl2, 5.17 CaCl2, and 10 HEPES (pH=7.2). The calculated free concentration of Ca^2+ in this solution is 100 nM and that of Mg^2+ is 1 mM. […]

Structure (SMILES)	SC100 (Stimulating Concentration required to induce a 100% increase (doubling) in the basal current) [µM]
ON=C1c2ccccc2-c2ccccc21 [9H-9-fluorenone-oxime]	0.08
c1ccc2c(c1)[nH]c1ccccc12 [Carbazole, carbazole]	0.2
